Results from patent US10294202B2, “Pyrrolidinones as herbicides” (FMC Corporation, priority 2013, dated 2019).

Tests used:
[1] = test system: rice; assay: Test C flooded paddy test; type: in vivo, Oryza sativa; details: Flood
Description: (§1) Plant species in the flooded paddy test consisted of rice (Oryza sativa), sedge, umbrella (small-flower umbrella sedge, Cyperus difformis), ducksalad (Heteranthera limosa), and barnyardgrass (Echinochloa crus-galli) grown to the 2-leaf stage for testing. At time of treatment, test pots were flooded to 3 cm above the soil surface, treated by application of test compounds directly to the paddy water, and then maintained at that water depth for the duration of the test. Treated plants and controls were maintained in a greenhouse for 13 to 15 days, after which time all species were compared to controls and visually evaluated. Plant response ratings, summarized in Table C, are based on a scale of 0 to 100 where 0 is no effect and 100 is complete control. A dash (-) response means no test result.

[2] = test system: crabgrass, large; assay: Test A pre-/postemergence herbicide test; type: in vivo, Digitaria sanguinalis
Outline: (§2)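 Directed soil spray to seeded pots (preemergence) or spray onto one- to two-leaf seedlings 2–10 cm tall (postemergence); loam/sand substrate throughout. Evaluated visually after about 10 days against untreated plants, 0 = no effect, 100 = complete control.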

[3] = test system: barnyardgrass; assay: Test A pre-/postemergence herbicide test; type: in vivo, Echinochloa crus-galli
Outline: as §2

[4] = test system: pigweed; assay: Test A pre-/postemergence herbicide test; type: in vivo, Amaranthus retroflexus; details: for Plant response rating, Pigweed: 500 g ai/ha
Outline: as §2

[5] = test system: wheat; assay: Test A pre-/postemergence herbicide test; type: in vivo, Triticum aestivum; details: for Plant response rating, Wheat: 500 g ai/ha
Outline: as §2

[6] = test system: morningglory; assay: Test A pre-/postemergence herbicide test; type: in vivo, Ipomoea spp.; details: for Plant response rating, Morningglory: 500 g ai/ha
Outline: as §2

[7] = test system: velvetleaf; assay: Test A pre-/postemergence herbicide test; type: in vivo, Abutilon theophrasti; details: for Plant response rating, Velvetleaf: 500 g ai/ha
Outline: as §2

[8] = test system: corn; assay: Test A pre-/postemergence herbicide test; type: in vivo, Zea mays
Outline: as §2

[9] = test system: sedge, umbrella; assay: Test C flooded paddy test; type: in vivo, Cyperus difformis; details: Flood
Description: as §1

[10] = test system: barnyardgrass; assay: Test C flooded paddy test; type: in vivo, Echinochloa crus-galli; details: Flood
Description: as §1

[11] = test system: giant foxtail; assay: Test A pre-/postemergence herbicide test; type: in vivo, Setaria faberii
Outline: as §2

[12] = test system: ducksalad; assay: Test C flooded paddy test; type: in vivo, Heteranthera limosa; details: Flood
Description: as §1

[13] = 31 g ai/ha, scale of 0 to 100 where 0 is no effect and 100 is complete control, 13 to 15 days
[14] = 62 g ai/ha, scale of 0 to 100 where 0 is no effect and 100 is complete control, 13 to 15 days
[15] = 125 g ai/ha, scale of 0 to 100 where 0 is no effect and 100 is complete control, 13 to 15 days
[16] = Postemergence, 125 g ai/ha, 0 to 100 scale, 0 no effect, 100 complete control
[17] = Postemergence, 500 g ai/ha, 0 to 100 scale (0 no effect, 100 complete control)
[18] = Preemergence, 125 g ai/ha, visual rating on 0 to 100 scale (0 no effect, 100 complete control)
[19] = preemergence, 500 g ai/ha, 0 to 100 scale
[20] = Postemergence, 0 to 100 scale (0 no effect, 100 complete control)

## O=C1NCC(c2cccc(F)c2)C1C(=O)Nc1ccccc1C(F)(F)F (racemic) [Compound 2]
[1]; [13]
  Plant response rating, Rice: 0
[1]; [14]
  Plant response rating, Rice: 0
[1]; [15]
  Plant response rating, Rice: 0
[1]; 250 g ai/ha, scale 0 to 100
  Plant response rating, Rice: 0
[2]; [16]
  Plant response rating, Crabgrass, Large: 50
[2]; [17]
  Plant response rating, Crabgrass, Large: 70
[2]; [18]
  Crabgrass, Large plant response rating: 90
[2]; [19]
  Plant response rating, Crabgrass, Large: 90
[3]; [16]
  Plant response rating, Barnyardgrass: 30
[3]; [17]
  Plant response rating, Barnyardgrass: 60
[3]; [18]
  Barnyardgrass plant response rating: 30
[3]; preemergence, 500 g ai/ha, 0 to 100 scale (0 no effect, 100 complete control)
  Plant response rating, Barnyardgrass: 60
[4]; [20]
  Plant response rating, Pigweed: 0
[4]; [18]
  Pigweed plant response rating: 0
[4]; preemergence, 0 to 100 scale
  Plant response rating, Pigweed: 0
[5]; [20]
  Plant response rating, Wheat: 0
[5]; [18]
  Wheat plant response rating: 0
[5]; preemergence, 0 to 100 scale
  Plant response rating, Wheat: 0
[6]; [20]
  Plant response rating, Morningglory: 0
[6]; [18]
  Morningglory plant response rating: 0
[6]; preemergence, 0 to 100 scale
  Plant response rating, Morningglory: 0
[7]; [20]
  Plant response rating, Velvetleaf: 0
[7]; [18]
  Velvetleaf plant response rating: 0
[7]; preemergence, 0 to 100 scale
  Plant response rating, Velvetleaf: 0
[8]; [16]
  Plant response rating, Corn: 0
[8]; [17]
  Plant response rating, Corn: 0
[8]; [18]
  Corn plant response rating: 0
[8]; [19]
  Plant response rating, Corn: 0
[9]; [13]
  Plant response rating, Sedge, Umbrella: 0
[9]; [14]
  Plant response rating, Sedge, Umbrella: 0
[9]; [15]
  Plant response rating, Sedge, Umbrella: 0
[9]; 250 g ai/ha, scale 0 to 100
  Plant response rating, Sedge, Umbrella: 0
[10]; [13]
  Plant response rating, Barnyardgrass: 0
[10]; [14]
  Plant response rating, Barnyardgrass: 0
[10]; [15]
  Plant response rating, Barnyardgrass: 0
[10]; 250 g ai/ha, scale 0 to 100
  Plant response rating, Barnyardgrass: 0
[11]; [16]
  Plant response rating, Foxtail, Giant: 30
[11]; [17]
  Plant response rating, Foxtail, Giant: 60
[11]; [18]
  Foxtail, Giant plant response rating: 90
[11]; [19]
  Plant response rating, Foxtail, Giant: 90
[12]; [13]
  Plant response rating, Ducksalad: 0
[12]; [14]
  Plant response rating, Ducksalad: 0
[12]; [15]
  Plant response rating, Ducksalad: 0
[12]; 250 g ai/ha, scale 0 to 100
  Plant response rating, Ducksalad: 0
